Assay results taken from paper PMC10926604, “Discovery of a novel small molecule as CD47/SIRPα and PD-1/PD-L1 dual inhibitor for cancer immunotherapy” (Cell Communication and Signaling : CCS, 2024).
“Also recorded” adds a separate entry of the source.

Tests used:
MC38 tumor-bearing mice [1] = assay: MC38 tumor model, SMC18 combined with radiotherapy; format: in vivo, mouse; settings: one 20 Gy dose local IR + SMC18 2 mg/kg i.p. daily for 14 days
Experimental: For the combined radiotherapy treatment model, mice were randomly grouped into four groups when the tumor volume reached approximately 40 ~ 60 mm^3. Mice were treated with a single dose of 20 Gy of local tumor irradiation (Precision X-Ray, XRad320) and daily intraperitoneal injections of SMC18 (2 mg/kg) or equivalent amount of saline for 14 days. Tumor volume was measured every other day using the formula V = 1/2 × a × b × c, where a, b, and c are the tumor's length, width, and height, respectively.

hCD112R/hCD112 = hCD112R/hCD112 (Homo sapiens, UniProt Q6DKI7+Q92692); assay: Blockade of other immune checkpoint pathways, CD112R/CD112; format: cell-based; settings: Fig. S2
murine PD-L1 (mPD-L1) = molecular target: T1, murine PD-L1 (mPD-L1) (Mus musculus, UniProt Q9EP73); assay: MST binding assay, murine PD-L1; settings: PD-L1-IgV-His, read-out: dissociation constant (KD) for murine PD-L1
T1 construct: PD-L1-IgV-His (human: 10,084-H08H, mouse: 50,010-M08H, Sino Biological); His; purchased Sino Biological 50,010-M08H
Experimental: (§1) SIPRα-IgV-His (human: SIA-H5225, mouse: SIA-M52H4, ACRO Biosystems) and PD-L1-IgV-His (human: 10,084-H08H, mouse: 50,010-M08H, Sino Biological) proteins were labeled with Red-NHS647 dye (NT-MO-L001, NanoTemper) for subsequent experiments. SMC18 (C385-0664, ChemDiv) was serially diluted using PBST (from 0.0191 μM to 200 μM) and mixed with the labeled proteins. The samples were then aspirated using standard capillaries and assayed by MST instrument (Monolith NT.115, NanoTemper), and the results were analyzed using the analytical software Monolith NT.115 system to calculate the dissociation constant (KD) values.

human PD-L1 (hPD-L1) = molecular target: T2, human PD-L1 (hPD-L1) (Homo sapiens, UniProt Q9NZQ7); assay: MST binding assay, human PD-L1; settings: PD-L1-IgV-His, read-out: dissociation constant (KD) for human PD-L1
T2 construct: PD-L1-IgV-His (human: 10,084-H08H, mouse: 50,010-M08H, Sino Biological); His; purchased Sino Biological 10,084-H08H
Experimental: as §1

[2] = system: GFP+ B16-OVA cells phagocytosed by BMDMs; assay: Phagocytosis assay, BMDMs with GFP+ B16-OVA cells; format: cell-based, mouse; settings: 50 μM, flow cytometry
Experimental: Bone marrow-derived macrophage cells (BMDMs) from C57BL/6N mice were isolated and induced with 20 ng/mL of mouse granulocyte–macrophage colony-stimulating factor (GM-CSF, 315–03, Peprotech) for 7 days, with regular medium changes and cytokine replenishment during cell induction. The cells were then harvested for subsequent experiments. Subsequently, the cells were treated with SMC18 at a concentration of 50 μΜ. The anti-CD47 antibody (clone miap301, 16–0471-81, Invitrogen) was employed as a positive control with 20 µg/mL. Phagocytosis was measured by the co-culture of macrophages with green fluorescent protein (GFP^+) tumor cells (GFP^+ MC38 and GFP^+ B16-OVA cells) at a ratio of 1:4 in serum-free medium at 37 °C for 4 h. The cells were harvested and identified by flow cytometry using anti-F4/80 antibody (BM8, 17–4801-82, eBioscience). The phagocytosis rate was calculated as the percentage F4/80^+GFP^+ cells relative to the total number of total F4/80^+ cells. For confocal microscopy detection, BMDMs were labelled with DiR dye (R-22070, Beyotime) at a final concentration of 200 μM, followed by a 30-min staining period. After washing with PBS three times, the cells were cultured with DMEM medium devoid of serum for 2 h. Subsequently, MC38-EGFP cells were seeded onto BMDMs at a density of 4 × 10^6 cells per well. […]

hTIGIT/hPVR = hTIGIT/hPVR (Homo sapiens, UniProt P15151+Q495A1); assay: Blockade of other immune checkpoint pathways, TIGIT/PVR; format: cell-based; settings: Fig. S2
MC38 tumor-bearing mice [3] = assay: Ex vivo flow cytometry of immune cells from MC38 tumor-bearing mice; format: in vivo, mouse; settings: SMC18 treatment vs NS
Experimental: At the end of treatment, the tumor-bearing mice were euthanized, and the tumor tissues were removed, minced and enzymatically digested with DNAase I (DN25, Sigma) and collagenase IV (17,104–019, Invitrogen) at 37 °C for 40 min. The digested tumor suspensions were filtered by nylon filter. Immune cell infiltration in the tumor tissue was analyzed by flow cytometry. For the detection of CD8^+ T cells at the tumor site, single-cell suspensions were stained with anti-mouse CD45-FITC (30-F11, eBioscience), anti-mouse CD3-PerCP-eFluor710 (17A2, eBioscience), anti-mouse CD8α-PE (53–6.7, eBioscience) or isotype control. To detect macrophage infiltration at tumor sites, single cell suspensions were stained with anti-mouse CD45-FITC (30-F11, eBioscience), anti-mouse CD11b-eFluor450 (M1/70, eBioscience), anti-mouse F4/80-PerCP-Cyanine5.5 (BM8, eBioscience), anti-mouse CD11c-APC (M418, eBioscience), anti-mouse CD206-PE (MR6F3, eBioscience) or isotype control.
To assess cytokine secretion from tumor sites and immune organs, spleens, draining lymph nodes and tumors from mice were dissected and ground into single cell suspensions, followed by filtration and incubation with […] transport inhibitors, PMA (20 ng/mL, 16561–29-8, Sigma) and ionomycin (1 µM, I0634, Sigma) for 4 h in a 37 °C incubator. The single cell suspensions of draining lymph nodes and spleens were stained with anti-mouse CD3-PerCP-eFluor710 (17A2, eBioscience), anti-mouse CD8α-PE (53–6.7, eBioscience), anti-mouse IFN-γ-APC (XMG1.2, eBioscience) or isotype control. Tumor cells were stained with anti-mouse CD45-FITC (30-F11, eBioscience), anti-mouse CD3-PerCP-eFluor710 (17A2, eBioscience), anti-mouse CD8α-PE (53–6.7, eBioscience), anti-mouse IFN-γ-APC (XMG1.2, eBioscience) or isotype control. Finally, the samples were detected by flow cytometry.

Sequence of hTIGIT/hPVR (Q495A1 22-244): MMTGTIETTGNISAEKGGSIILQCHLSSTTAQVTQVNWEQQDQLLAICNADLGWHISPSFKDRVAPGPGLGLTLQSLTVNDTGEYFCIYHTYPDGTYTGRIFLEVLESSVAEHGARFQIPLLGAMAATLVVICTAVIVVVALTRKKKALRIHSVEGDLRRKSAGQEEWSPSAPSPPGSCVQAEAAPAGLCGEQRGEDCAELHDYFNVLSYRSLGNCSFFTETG
Sequence of hTIGIT/hPVR (P15151 21-417): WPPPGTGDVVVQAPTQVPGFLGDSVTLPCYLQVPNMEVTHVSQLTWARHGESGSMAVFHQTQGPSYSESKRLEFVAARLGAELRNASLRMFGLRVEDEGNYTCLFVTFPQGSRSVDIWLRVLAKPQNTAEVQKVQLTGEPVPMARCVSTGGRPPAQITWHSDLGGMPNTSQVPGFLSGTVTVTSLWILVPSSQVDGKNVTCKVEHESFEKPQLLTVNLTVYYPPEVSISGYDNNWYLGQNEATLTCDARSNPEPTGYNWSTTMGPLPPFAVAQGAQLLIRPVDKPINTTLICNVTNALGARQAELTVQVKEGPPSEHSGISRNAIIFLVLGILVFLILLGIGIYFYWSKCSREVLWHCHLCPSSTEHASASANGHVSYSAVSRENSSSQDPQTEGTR
Sequence of hCD112R/hCD112 (Q6DKI7 whole entry): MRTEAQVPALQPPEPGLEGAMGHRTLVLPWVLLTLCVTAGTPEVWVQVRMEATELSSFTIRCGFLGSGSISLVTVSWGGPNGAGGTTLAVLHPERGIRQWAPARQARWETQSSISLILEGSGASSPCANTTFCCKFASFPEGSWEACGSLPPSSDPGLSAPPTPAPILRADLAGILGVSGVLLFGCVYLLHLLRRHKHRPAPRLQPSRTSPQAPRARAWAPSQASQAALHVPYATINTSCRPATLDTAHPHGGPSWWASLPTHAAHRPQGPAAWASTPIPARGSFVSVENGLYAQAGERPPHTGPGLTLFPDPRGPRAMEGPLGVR
Sequence of hCD112R/hCD112 (Q92692 32-538): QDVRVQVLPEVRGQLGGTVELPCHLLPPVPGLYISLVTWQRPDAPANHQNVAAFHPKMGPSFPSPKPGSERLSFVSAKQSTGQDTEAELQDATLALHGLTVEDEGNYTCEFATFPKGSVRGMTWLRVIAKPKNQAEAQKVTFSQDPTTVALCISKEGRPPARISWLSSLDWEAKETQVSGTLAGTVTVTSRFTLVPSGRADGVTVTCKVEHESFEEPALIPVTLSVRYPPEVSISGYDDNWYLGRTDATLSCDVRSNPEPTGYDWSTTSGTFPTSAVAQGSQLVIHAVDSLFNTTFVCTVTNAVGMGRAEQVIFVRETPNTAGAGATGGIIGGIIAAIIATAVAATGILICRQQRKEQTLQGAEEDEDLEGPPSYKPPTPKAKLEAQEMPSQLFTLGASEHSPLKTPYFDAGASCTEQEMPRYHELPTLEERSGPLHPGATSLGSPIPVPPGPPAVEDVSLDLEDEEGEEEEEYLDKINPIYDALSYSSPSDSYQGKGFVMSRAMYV
T1 sequence (Q9EP73 19-127 limits assumed): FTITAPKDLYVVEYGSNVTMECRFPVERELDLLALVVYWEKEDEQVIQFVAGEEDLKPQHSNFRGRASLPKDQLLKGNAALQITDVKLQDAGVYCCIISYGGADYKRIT
T2 sequence (Q9NZQ7 19-127 limits assumed): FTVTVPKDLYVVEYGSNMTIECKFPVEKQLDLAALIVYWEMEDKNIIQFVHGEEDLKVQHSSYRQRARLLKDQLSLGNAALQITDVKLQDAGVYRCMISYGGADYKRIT

Cc1cc(C)cc(NS(=O)(=O)c2ccc3[nH]cc(C(=O)NCCc4ccccc4)c(=O)c3c2)c1 [SMC18]
body weight of the mice, combination with radiotherapy (MC38 tumor-bearing mice [1]): without affecting | tumor growth, combination with radiotherapy (MC38 tumor-bearing mice [1]): significantly inhibited | inhibitory effect on hCD112R/hCD112 pathway (hCD112R/hCD112): no blocking effect; also recorded: did not impede | Kd (murine PD-L1 (mPD-L1)): 25 ± 30 nM | Kd (human PD-L1 (hPD-L1)): 29 ± 30 nM | phagocytosis of B16-OVA cells by BMDMs [2]: enhances; also recorded: significantly increased | inhibitory effect on hTIGIT/hPVR pathway (hTIGIT/hPVR): no blocking effect; also recorded: did not impede | amount of CD8+ T cell secreting IFN-γ in the tumor tissue (MC38 tumor-bearing mice [3]; MC38 tumor): significantly increased | infiltration of CD8+ T cells in the tumor tissue (MC38 tumor-bearing mice [3]; MC38 tumor): significantly increased | amount of CD8+ T secreting IFN-γ in the draining lymph nodes (MC38 tumor-bearing mice [3]): increased | amount of CD8+ T secreting IFN-γ in the spleen (MC38 tumor-bearing mice [3]): increased | proportion of M1-type macrophages in tumor (MC38 tumor-bearing mice [3]): increased
